Results as given in US8598339B2, “Withanolide isolated from Physalis longifolia and analogs and methods of use thereof” (University of Kansas, priority 2011, dated 2013).

How the values were obtained:
MRC5 = assay: MTS assay, MRC5; assay type: cell-based; settings: MRC5 (normal)
Method: (§1) Cell proliferation was analyzed using MTS assay.

MDA-MB-231 cells [1] = assay: Cell cycle analysis, MDA-MB-231; assay type: cell-based; settings: 4 and 8 μM; 24-hour treatment
Ames test strain TA100 = assay: Ames test, TA100
BT20 cells = assay: Cell cycle analysis, BT20; assay type: cell-based; settings: 2 μM; 24-hour treatment
MDA-MB-231 = assay: MTS assay, MDA-MB-231; assay type: cell-based
Method: as §1

[2] = tested on: RET, mTOR, 4E-BP1, P70S6 kinase, akt, pERK in medullary thyroid cancer cells; assay: Mechanistic pathway protein levels in medullary thyroid cancer cells; assay type: cell-based; settings: 24 hours; 0.5, 1, 3, and 6 μM
Method: Additional analysis of X005, X032 and X033 was carried out in medullary thyroid cancer cells. […] Therefore, this analysis indicates the importance of this double bond in the A-ring to anti-cancer activity.

DRO81-1 cells = assay: Annexin V/PI staining and flow cytometry, DRO81-1; assay type: cell-based; settings: 24-hour exposure
[3] = In vitro metabolism, dog liver microsomes; assay type: in vitro ADME, dog (Beagle); settings: 1.0E-06 M
Method: (§2) The in vitro metabolism of […], as compared to known reference compounds, was analyzed using liver microsomes from human, dog (Beagle), rat (Sprague-Dawley) and mouse (CD-1). […] Results are from two independent tests.

[4] = tested on: TT medullary thyroid cancer cells; assay: MTS cell viability assay, TT; assay type: cell-based; settings: Table 1, 72-hour treatment
Method: Human carcinoid cells, NCI-H727 (ATCC, Manassas, Va.), were cultured under standard conditions. Squamous cell carcinoma of head and neck cells, MDA1986 (Myers, et al. (2002) Clin. Cancer Res. 8:293) and JMAR (Swan, et al. (2003) Oral Oncol. 39:648-55); and melanoma cells lines B16F10 (ATCC, Manassas, Va.) and SKMEL28 (CLS, Eppelheim, Germany) were cultured in DMEM medium supplemented with 10% heat-inactivated fetal bovine serum (Sigma-Aldrich, St. Louis, Mo.), 1×MEM-essential amino acid, 1×MEM vitamin, and penicillin/streptomycin (Sigma-Aldrich, St. Louis, Mo.) in a humid environment of 5% CO2 at 37° C. Activity of withanolides against DRO81-1 and TT medullary thyroid cancer cells was also determined.
Cells were cultured in 96 well plates at a concentration of 1-2×10^4 cells/mL. Cell viability was assessed with the nonradioactive cell proliferation MTS assay using Cell Titer 96AQUEOUS One Solution Reagent (PROMEGA, Madison, Wis.), according to the manufacturer's instruction. After a 72-hour treatment, 20 μL of Cell Titer 96AQUEOUS One Solution Reagent were added to each well and incubated for 3 hours at 37° C. 5% CO2, and formazan absorbance was measured at 490 nm.

Ames test strain TA1535 = assay: Ames test, TA1535
[5] = In vitro metabolism, rat liver microsomes; assay type: in vitro ADME, rat (Sprague-Dawley); settings: 1.0E-06 M
Method: as §2

Ames test strain TA98 = assay: Ames test, TA98
MDA-MB-231 cells [6] = assay: Annexin V-FITC/Propidium Iodide apoptosis, MDA-MB-231; assay type: cell-based
Text: (§3) Therefore, this cell line was not very sensitive to X001 in this assay.

[7] = tested on: HCC1937 (BRCA-1 mutant) cells; assay: MTS assay, HCC1937; assay type: cell-based
Method: as §1

HCC1937 cells = assay: Clonogenic assay, HCC1937; assay type: cell-based; settings: 1-2 μM; treated 24 hours, cultured two weeks
MCF-7 cells = assay: Annexin V-FITC/Propidium Iodide apoptosis, MCF-7; assay type: cell-based; settings: 1-4 μM, 24 and 48 hours
Text: as §3

[8] = tested on: Hs766T pancreatic cancer cells; assay: Co-treatment with carfilzomib, apoptosis, Hs766T; assay type: cell-based; settings: 0.1, 0.2 or 0.3 μM X003 with carfilzomib (10 nM)
Method: To determine whether the instant withanolides could be used in combination with other treatment regimes, Hs766T pancreatic cancer cells were either treated with 0.1, 0.2 or 0.3 μM X003; 10 or 20 nM carfilzomib; or co-treated with carfilzomib (10 nM) and either 0.1, 0.2 or 0.3 μM X003.

[9] = tested on: hsf1 and client proteins of Hsp90 in Hs766T cells; assay: Western blot, Hs766T; assay type: cell-based
NCI-H727 cells = assay: PARP cleavage and caspase 3 activation, NCI-H727; assay type: cell-based; settings: 1 μM
Method: In similar analysis with X003, 50% of UMSCC-2 HNSCC cells underwent apoptosis (early and late) at 1 μM, while 90% of cells underwent apoptosis at 3 μM. Apoptosis with 1 μM X003 was confirmed with PARP cleavage and caspase 3 activation in NCI-H727 cells.

[10] = tested on: hsf1 and client proteins of Hsp90 in MIA PaCa-2 cells; assay: Western blot, MIA PaCa-2; assay type: cell-based
[11] = tested on: heat shock factor (HSF) / HSE-luciferase in Hs766T cells; assay: HSE-luciferase reporter, Hs766T; assay type: cell-based; parameters: dose or concentration left out as unconfirmed; settings: heat shock 42° C. 30 minutes; recovery 8 hours
Method: To monitor the activation of heat shock factor (HSF) and heat shock-mediated signal transduction pathways, Hs766T cells were transfected with a HSE-luciferase construct, then treated with 3 mM of the selected withanolides for 8 hours. The cells were heat shocked at 42° C. for 30 minutes and allowed to recover at 37° C. for 8 hours. Cells were lysed and luciferase activity was measured on a plate reader.

CC1=C(CO)C(=O)O[C@@H]([C@@H](C)C2CC[C@H]3[C@@H]4C[C@H]5O[C@]56[C@@H](O)C=CC(=O)[C@]6(CO)[C@H]4CC[C@]23C)C1 (some centres unmarked) [Compound X001]
Log ECF (MRC5): 4.59 | cell cycle effect (MDA-MB-231 cells [1]): G2/M arrest | Positive Significance (− to +++) (Ames test strain TA100; 1.0E−04 M, TA100 +S9): − | Positive Significance (− to +++) (Ames test strain TA100; 1.0E−04 M, TA100 −S9): − | Positive Significance (− to +++) (Ames test strain TA100; 1.0E−05 M, TA100 +S9): − | Positive Significance (− to +++) (Ames test strain TA100; 1.0E−05 M, TA100 −S9): − | Positive Significance (− to +++) (Ames test strain TA100; 5.0E−05 M, TA100 +S9): − | Positive Significance (− to +++) (Ames test strain TA100; 5.0E−05 M, TA100 −S9): − | Positive Significance (− to +++) (Ames test strain TA100; 5.0E−06 M, TA100 +S9): − | Positive Significance (− to +++) (Ames test strain TA100; 5.0E−06 M, TA100 −S9): − | cell cycle effect (BT20 cells): G2/M arrest | Log ECF (MDA-MB-231): 1.25 | pERK levels [2]: increased at higher concentrations | total and phosphorylated protein levels of RET, mTOR, P706S kinase [2]: down-regulated in a dose-dependent manner | induction of apoptosis (DRO81-1 cells; 5 μM): apoptosis was induced | cells gated toward late apoptosis (DRO81-1 cells; 10 μM): 65% | Mean % Parent Compound Remaining [3]: 28% | IC50 [4]: 1910 nM | Positive Significance (− to +++) (Ames test strain TA1535; 1.0E−04 M, TA1535 +S9): − | Positive Significance (− to +++) (Ames test strain TA1535; 1.0E−04 M, TA1535 −S9): − | Positive Significance (− to +++) (Ames test strain TA1535; 1.0E−05 M, TA1535 +S9): − | Positive Significance (− to +++) (Ames test strain TA1535; 1.0E−05 M, TA1535 −S9): − | Positive Significance (− to +++) (Ames test strain TA1535; 5.0E−05 M, TA1535 +S9): − | Positive Significance (− to +++) (Ames test strain TA1535; 5.0E−05 M, TA1535 −S9): − | Positive Significance (− to +++) (Ames test strain TA1535; 5.0E−06 M, TA1535 +S9): − | Positive Significance (− to +++) (Ames test strain TA1535; 5.0E−06 M, TA1535 −S9): − | Mean % Parent Compound Remaining [5]: 31% | Positive Significance (− to +++) (Ames test strain TA98; 1.0E−04 M, TA98 +S9): − | Positive Significance (− to +++) (Ames test strain TA98; 1.0E−04 M, TA98 −S9): − | Positive Significance (− to +++) (Ames test strain TA98; 1.0E−05 M, TA98 +S9): − | Positive Significance (− to +++) (Ames test strain TA98; 1.0E−05 M, TA98 −S9): − | Positive Significance (− to +++) (Ames test strain TA98; 5.0E−05 M, TA98 +S9): − | Positive Significance (− to +++) (Ames test strain TA98; 5.0E−05 M, TA98 −S9): − | Positive Significance (− to +++) (Ames test strain TA98; 5.0E−06 M, TA98 +S9): − | Positive Significance (− to +++) (Ames test strain TA98; 5.0E−06 M, TA98 −S9): − | concentration needed to induce apoptosis (MDA-MB-231 cells [6]): at least 4 μM | Log ECF [7]: 0.71 | colony formation (HCC1937 cells): strongly inhibited | induction of apoptosis (MCF-7 cells): did not induce apoptosis

CC(=O)OCC1=C(C)C[C@H]([C@@H](C)C2CC[C@H]3[C@@H]4C[C@H]5O[C@]56[C@@H](OC(C)=O)C=CC(=O)[C@]6(COC(C)=O)[C@H]4CC[C@]23C)OC1=O (some centres unmarked) [Compound X003, 4,19,27-triacetyl X001]
apoptosis on co-treatment with carfilzomib [8]: enhances | stress and client protein response (western blot) [9]: induced oxidative and proteotoxic stress, while depleting hsf1 and client proteins of Hsp90 | apoptosis by PARP cleavage and caspase 3 activation (NCI-H727 cells): confirmed | stress and client protein response (western blot) [10]: induced oxidative and proteotoxic stress, while depleting hsf1 and client proteins of Hsp90 | heat shock-induced increase in luciferase activity [11]: substantially reduced
